Results taken from patent US20220162191A1, “SMALL MOLECULE MODULATORS OF IL-17” (LEO PHARMA A/S, priority 2019, published 2022).

target: T1, human IL-17AA (Homo sapiens, UniProt Q16552); assay: IL-8 release assay in human epithelial keratinocytes adult (HEKa); assay type: cell-based; details: 3 ng/ml human IL-17AA + 10 ng/ml human TNFalpha, 68-72 h, IL-8 by HTRF, read-out: Rel EC50 L-8 release assay
T1 construct: host or cells: HEK (human embryonic kidney) cells
T1 sequence (Q16552 24-155) 1: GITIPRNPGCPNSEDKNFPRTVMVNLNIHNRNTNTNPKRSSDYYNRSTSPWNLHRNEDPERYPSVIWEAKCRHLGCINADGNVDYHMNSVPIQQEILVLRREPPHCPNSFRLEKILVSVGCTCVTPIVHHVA
T1 sequence (Q16552 24-155) 2: T1 sequence (Q16552 24-155) 1
In short: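 Adult human keratinocytes in Epilife with HKGS minus hydrocortisone, treated with compound then stimulated with final 3 ng/ml HEK-derived human IL-17AA plus 10 ng/ml TNF-alpha for 68–72 h at 37 °C; TNF-alpha alone defines 100% inhibition. Secreted IL-8 by HTRF; relative IC50 and Emax from four-parameter fits.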

Compound | EC50
CNC1CN(c2cc(-c3ccc(Cl)c(CC(NC(=O)c4ccnn4C)C(=O)Nc4ccc(-c5cncn5C)cc4)c3)ccn2)C1 (centres unmarked) [Example 196, N-[1-[[2-chloro-5-[2-[3-(methylamino)azetidin-1-yl]-4-pyridyl]phenyl]methyl]-2-[4-(3-methylimidazol-4-yl)anilino]-2-oxo-ethyl]-2-methyl-pyrazole-3-carboxamide] | 0.1 to 1 µM
N-[(1S)-2-[6-chloro-3-(1-isopropyl- 6-oxo-3-pyridyl)cyclohexa-2,4-dien- 1-yl]-1-[[4-(3-methylimidazol-4- yl)phenyl]carbamoyl]propyl]-2- methyl-pyrazole-3-carboxamide [Example 54] | 0.1 to 1 µM
CN1CCOC[C@@H]1c1cccc(-c2ccc(Cl)c(C[C@H](NC(=O)c3ccnn3C)C(=O)Nc3ccc(-c4cncn4C)cc3)c2)c1 [Example 217, N-[(1S)-1-[[2-chloro-5-[3-[(3S)-4-methylmorpholin-3-yl]phenyl]phenyl]methyl]-2-[4-(3-methylimidazol-4-yl)anilino]-2-oxo-ethyl]-2-methyl-pyrazole-3-carboxamide] | 0.1 to 1 µM
Cc1nocc1C(=O)NC(Cc1cc(-c2ccc(=O)n(C(C)C)c2)ccc1Cl)C(=O)Nc1ccc(-c2cn[nH]c2)cc1 (centres unmarked) [Example 80, N-[1-[[2-chloro-5-(1-isopropyl-6-oxo-3-pyridyl)phenyl]methyl]-2-oxo-2-[4-(1H-pyrazol-4-yl)anilino]ethyl]-3-methyl-isoxazole-4-carboxamide] | 0.1 to 1 µM
Cc1cnn(C)c1-c1ccc(NC(=O)[C@@H](NC(=O)c2ccnn2C)[C@@H](c2cccc(-c3cc(N4C[C@@H]5C[C@H]4CO5)ncn3)c2)C2CC2)cc1 [Example 351, N-[(1S)-1-[(R)-cyclopropyl-[3-[6-[(1S,4S)-2-oxa-5-azabicyclo[2.2.1]heptan-5-yl]pyrimidin-4-yl]phenyl]methyl]-2-[4-(2,4-dimethylpyrazol-3-yl)anilino]-2-oxo-ethyl]-2-methyl-pyrazole-3-carboxamide] | 0.1 to 1 µM
CC(C)n1cc(-c2cccc(C(c3ccccc3)C(NC(=O)OC3CC3)C(=O)Nc3ccc(-c4cncn4C)cc3)c2)ccc1=O (single isomer, unassigned; diastereomer 2) [Example 239, cyclopropyl N-[1-[[3-(1-isopropyl-6-oxo-3-pyridyl)phenyl]-phenyl-methyl]-2-[4-(3-methylimidazol-4-yl)anilino]-2-oxo-ethyl]carbamate (Diastereomer 2)] | 0.1 to 1 µM
CC(C)n1cc(-c2ccc(Cl)c(CC(NC(=O)OCC3(C)CC3)C(=O)Nc3ccc(-c4nncn4C)cc3)c2)ccc1=O (centres unmarked) [Example 106, (1-methylcyclopropyl)methyl N-[1-[[2-chloro-5-(1-isopropyl-6-oxo-3-pyridyl)phenyl]methyl]-2-[4-(4-methyl-1,2,4-triazol-3-yl)anilino]-2-oxo-ethyl]carbamate] | > 1 µM
Cc1cnn(C)c1-c1ccc(NC(=O)[C@@H](NC(=O)c2ccnn2C)[C@@H]2CCc3ccc(-c4ccnc(C(C)C)n4)cc32)cc1 [Example 382, N-[(1S)-2-[4-(2,4-dimethylpyrazol-3-yl)anilino]-1-[(1R)-6-(2-isopropylpyrimidin-4-yl)indan-1-yl]-2-oxo-ethyl]-2-methyl-pyrazole-3-carboxamide] | 0.1 to 1 µM
Cc1n[nH]c(C)c1-c1ccc(NC(=O)[C@@H](NC(=O)c2ccnn2C)[C@@H]2CCc3ccc(-n4cnc(C(C)C)c4)cc32)cc1 [Example 361, N-[(1S)-2-[4-(3,5-dimethyl-1H-pyrazol-4-yl)anilino]-1-[(1R)-6-(4-isopropylimidazol-1-yl)indan-1-yl]-2-oxo-ethyl]-2-methyl-pyrazole-3-carboxamide] | 0.1 to 1 µM
Cc1n[nH]c(C)c1-c1ccc(NC(=O)[C@H](Cc2cc(-c3ccc(CN4C[C@@H]5C[C@H]4CN5)cc3)ccc2Cl)NC(=O)C2(F)CC2)cc1 [Example 229, N-[(1S)-1-[[2-chloro-5-[4-[[(1S,4S)-2,5-diazabicyclo[2.2.1]heptan-2-yl]methyl]phenyl]phenyl]methyl]-2-[4-(3,5-dimethyl-1H-pyrazol-4-yl)anilino]-2-oxo-ethyl]-1-fluoro-cyclopropanecarboxamide] | 0.1 to 1 µM
Cn1cnnc1-c1ccc(NC(=O)[C@@H](NC(=O)C2(F)CC2)[C@@H]2CCCc3ccc(-c4ccnc(N5C[C@H]6C[C@@H]5CO6)c4)cc32)cc1 [Example 405, 1-fluoro-N-[(1S)-2-[4-(4-methyl-1,2,4-triazol-3-yl)anilino]-1-[(1R)-7-[2-[(1R,4R)-2-oxa-5-azabicyclo[2.2.1]heptan-5-yl]-4-pyridyl]tetralin-1-yl]-2-oxo-ethyl]cyclopropanecarboxamide] | > 1 µM
Cc1n[nH]c(C)c1-c1ccc(NC(=O)[C@@H](NC(=O)C2(F)CC2)[C@@H]2CCCc3ccc(-c4ccc(CN5C[C@H]6C[C@@H]5CO6)cc4)cc32)cc1 [Example 390, N-[(1S)-2-[4-(3,5-dimethyl-1H-pyrazol-4-yl)anilino]-1-[(1R)-7-[4-[[(1R,4R)-2-oxa-5-azabicyclo[2.2.1]heptan-5-yl]methyl]phenyl]tetralin-1-yl]-2-oxo-ethyl]-1-fluoro-cyclopropanecarboxamide] | 0.1 to 1 µM
CC(C)n1cc(-c2ccc(Cl)c(CC(NC(=O)OC(C)(C)C)C(=O)Nc3ccc(-c4cnn[nH]4)cc3)c2)ccc1=O (centres unmarked) [Example 76, tert-butyl N-[1-[[2-chloro-5-(1-isopropyl-6-oxo-3-pyridyl)phenyl]methyl]-2-oxo-2-[4-(1H-triazol-5-yl)anilino]ethyl]carbamate] | > 1 µM
Cc1n[nH]c(C)c1-c1ccc(NC(=O)[C@@H](NC(=O)C2(F)CC2)[C@@H]2CCc3ccc(-c4ccc(=O)n(C(C)C)c4)cc32)cc1 [Example 6, N-[(1S)-2-[4-(3,5-dimethyl-1H-pyrazol-4-yl)anilino]-1-[(1R)-6-(1-isopropyl-6-oxo-3-pyridyl)indan-1-yl]-2-oxo-ethyl]-1-fluoro-cyclopropanecarboxamide] | 0.1 to 1 µM
Cc1cnn(C)c1-c1ccc(NC(=O)[C@H](Cc2cc(-c3ccc(=O)n(C(C)C)c3)ccc2Cl)NC(=O)C2CCC2)cc1 [Example 325, N-[(1S)-1-[[2-chloro-5-(1-isopropyl-6-oxo-3-pyridyl)phenyl]methyl]-2-[4-(2,4-dimethylpyrazol-3-yl)anilino]-2-oxo-ethyl]cyclobutanecarboxamide] | > 1 µM
CC(C)n1cc(-c2cccc(C(c3ccccc3)C(NC(=O)c3ccnn3C)C(=O)Nc3ccc(-c4cncn4C)cc3)c2)ccc1=O (single isomer, unassigned; diastereomer 3) [Example 233, N-[1-[[3-(1-isopropyl-6-oxo 3-pyridyl)phenyl]-phenyl-methyl]-2-[4-(3-methylimidazol-4-yl)anilino] 2-oxo-ethyl]-2-methyl-pyrazole-3-carboxamide (Diastereomer 3)] | > 1 µM
Cc1nocc1C(=O)NC(Cc1cc(-c2ccnc(C(=O)N(C)C3CC3)c2)ccc1Cl)C(=O)Nc1ccc(-c2nncn2C)cc1 (centres unmarked) [Example 306, N-[1-[[2-chloro-5-[2-[cyclopropyl(methyl)carbamoyl]-4-pyridyl]phenyl]methyl]-2-[4-(4-methyl-1,2,4-triazol-3-yl)anilino]-2-oxo-ethyl]-3-methyl-isoxazole-4-carboxamide] | > 1 µM
Cc1ncn(C)c1-c1ccc(NC(=O)[C@@H](NC(=O)C2(F)CC2)[C@@H]2CCc3ccc(-c4ccnc(N5C[C@@H]6C[C@H]5CO6)c4)cc32)cc1O [Example 358, N-[(1S)-2-[4-(3,5-dimethylimidazol-4-yl)-3-hydroxy-anilino]-1-[(1R)-6-[2-[(1S,4S)-2-oxa-5-azabicyclo[2.2.1]heptan-5-yl]-4-pyridyl]indan-1-yl]-2-oxo-ethyl]-1-fluoro-cyclopropanecarboxamide] | < 0.1 µM
Cc1n[nH]c(C)c1-c1ccc(NC(=O)[C@@H](NC(=O)c2ccnn2C)[C@@H]2CCc3ccc(-c4cnn(C(C)(C)C)c4)cc32)cc1 [Example 4, N-[(1S)-1-[(1R)-6-(1-tert-butylpyrazol-4-yl)indan-1-yl]-2-[4-(3,5-dimethyl-1H-pyrazol-4-yl)anilino]-2-oxo-ethyl]-2-methyl-pyrazole-3-carboxamide] | < 0.1 µM
Cc1n[nH]c(C)c1-c1ccc(NC(=O)[C@H](Cc2cc(-c3cccc(CN)c3)ccc2Cl)NC(=O)c2ccnn2C)cc1 [Example 61, N-[(1S)-1-[[5-[3-(aminomethyl)phenyl]-2-chloro-phenyl]methyl]-2-[4-(3,5-dimethyl-1H-pyrazol-4-yl)anilino]-2-oxo-ethyl]-2-methyl-pyrazole-3-carboxamide] | 0.1 to 1 µM
Cc1n[nH]c(C)c1-c1ccc(NC(=O)[C@@H](NC(=O)C2(F)CC2)[C@@H]2CCCc3ccc(-c4cc(C)c(=O)n(C(C)C)c4)cc32)cc1 [Example 391, N-[(1S)-2-[4-(3,5-dimethyl-1H-pyrazol-4-yl)anilino]-1-[(1R)-7-(1-isopropyl-5-methyl-6-oxo-3-pyridyl)tetralin-1-yl]-2-oxo-ethyl]-1-fluoro-cyclopropanecarboxamide] | < 0.1 µM
Cn1cnnc1-c1ccc(NC(=O)C(Cc2cc(-c3ccc(O)c(C(=O)N4CCC4)c3)ccc2Cl)NC(=O)c2ccnn2C)cc1 (centres unmarked) [Example 172, N-[1-[[5-[3-(azetidine-1-carbonyl)-4-hydroxy-phenyl]-2-chloro-phenyl]methyl]-2-[4-(4-methyl-1,2,4-triazol-3-yl)anilino]-2-oxo-ethyl]-2-methyl-pyrazole-3-carboxamide] | > 1 µM
CN(CC1CC1)c1cc(-c2ccc(Cl)c(CC(NC(=O)c3ccnn3C)C(=O)Nc3ccc(-c4cncn4C)cc3)c2)ccn1 (centres unmarked) [Example 153, N-[1-[[2-chloro-5-[2-[cyclopropylmethyl(methyl)amino]-4-pyridyl]phenyl]methyl]-2-[4-(3-methylimidazol-4-yl)anilino]-2-oxo-ethyl]-2-methyl-pyrazole-3-carboxamide] | < 0.1 µM
